In patent publication US10765761B2, “Nucleic acid condensing peptide, nucleic acid condensing peptide set, nucleic acid delivery carrier, nucleic acid delivery method, cell production method, cell detection method and kit” (KABUSHIKI KAISHA TOSHIBA, priority 2016, dated 2020):

How the values were obtained:
plasmid vector (pDNA) = test: Gel retardation assay: condensability and dissociation, Example 2; assay type: binding; conditions: 0.8% agarose gel, samples of any concentration (FIG. 6); for dissociation: PGA (+) sample; for condensability: PGA (-) sample
Protocol: The condensability of the nucleic acid by the peptide of the embodiment and the dissociation of the peptide and the nucleic acid were estimated by a gel retardation assay.
As samples for the condensability evaluation, 18 sets of 8.0 μL of 10 mM-HEPES (pH: 5.3) were prepared and 1.0 μL of the respective peptide-nucleic-acid solutions of Example 1 and […] were added thereto and mixed, thus preparing mixtures. As samples for the dissociation evaluation, 1.0 μL of peptide-nucleic-acid solutions and 1.0 μL of poly-glutamic-acid (PGA) solutions were added to 8.0 μL of 10 mM-HEPES solutions (pH: 5.3) and mixed, thereby preparing mixtures. After they were let stand still for 15 minutes at room temperature, 1.0 μL of an electrophoretic buffer (50%-sucrose solution) was added to each mixture, and they were mixed well, to carry out electrophoresis with a 0.8%-agarose gel. After the electrophoresis, the nucleic acid dyed with ethidium bromide was visualized by UV irradiation, and the nucleic acids condensed by the peptide and the nucleic acid dissociating with the peptide and moving into a gel were detected.
FIG. 6 is a photograph showing the agarose gel subjected to UV irradiation. Of two lanes indicated by the numbers of the respective samples, the left lane indicates the results of a PGA (−) sample (sample for the condensability evaluation) and the right lane for those of a PGA (+) sample (sample for the dissociation evaluation). When an integrated band with a large molecular weight, which strongly shines is observed in the left lane, it was evaluated as a high condensability. […] The mHP-1 and mHP-3 were excellent both in condensability and dissociation in the samples of any concentration. In particular, they were excellent in the peptide-nucleic-acid solutions (8) and (16).

plasmid = test: Amount of encapsulation of plasmid in liposome (Quant-iT PicoGreen dsDNA assay kit), Example 3; assay type: physicochemical
Protocol: COATSOME/SS-20 (Nippon Oil & Fats), DOPE, cholesterol and DMG-PEG were dissolved into ethanol at a molar ratio of 5:3:1:0.3, to obtain a lipid solution. Two sets of lipid solutions (0.5 ml) put into tubes were prepared, and 0.5 ml of peptide-nucleic-acid solutions (8) (mHP-1) and (16) (mHP-3) of Example 1 were dropped thereto while stirring each lipid solution, thereby forming liposomes. 9 ml of 10 mM-HEPES (pH: 5.3) was added to each of the liposome solutions to make a total amount of 10 ml (each liposome solution will be referred to as “Complex” hereinafter). Further, on an assumption that the liposome is taken into an organism, and liposome solutions (which will be referred to as “HEPES replacement”) in which ethanol, which is the solvent of Complex is substituted by HEPES were produced. The HEPES replacements were produced by condensing each solution of Complex to 1.5 ml with an ultrafiltration film for 300 kDa, adding 8.5 ml of 100 mM-HEPES (pH: 7.4) to each, performing ultrafiltration, thereafter substituting the solvent with 10 mM-HEPES (pH: 7.4), and finally condensing to 0.5 ml. Further, the HEPES replacements were filtered for sterilization with a filter with a pore diameter of 0.45 μm to prepare solutions (which will be referred to as “0.45 μm” hereinafter).
The “peptide-nucleic-acid solution”, “HEPES substituent” and “0.45 micrometer”, each of which contain the protamine, mHP-1 or mHP-3 prepared as above were examined in terms of average particle diameter of liposome, Zeta potential and amount of encapsulation of plasmid. The average particle diameter and Zeta potential were measured using a zetasizer. The amount of encapsulation of plasmid was measured using a Quant-iT PicoGreen (registered trademark) dsDNA assay kit.

[1] = test system: human normal mammary gland epithelial cells (HMEC); test: Transfection of nucleic acid (pAmp-CMV-nLuc) into cells by liposome, luminescence imaging, Example 5; assay type: cell-based; conditions: 48 hours after addition of the liposome, NanoLuc (FIG. 10)
Excerpt: As nucleic acid to be encapsulated in the liposome, pAmp-CMV-nLuc was used. The pAmp-CMV-nLuc is a reporter vector which contains a NanoLuc gene as the reporter gene. The pAmp-CMV-nLuc includes a CMV promoter as a gene expression promoter, and in its lower stream, a NanoLuc gene, IRES sequence and a replication initiation protein (LT, large T antigen) gene of simian virus 40 (SV40) which are liked in this order, and further, in a lower stream, a replication initiation sequence (SV40 ori) of SV40. Using this nucleic acid, the protamine of Example 3 and the peptides of the mHP-1 and mHP-3, a liposome solution was produced by a method similar to that of Example 3.
The liposome solution prepared as above was added to human normal mammary gland epithelial cells (HMEC) (Kurabo Industries). The HMEC used here was prepared by reviving from an HMEC freeze stock and thereafter culturing in an incubator of a 5%-CO2 atmosphere at 37 degrees Celsius for six to seven days. […]
48 hours after the addition of the liposome, a luminescence substrate (Nano-Glo Luciferase Assay Substrate and Promega) was added to the culture medium to dilute to 1/2000. This culture dish was set to LV200 (a luminescence imaging system of Olympus) and photographed. […]

Sequence	dissociation (plasmid vector (pDNA))	condensability (plasmid vector (pDNA))	Plasmid inclusion amount (plasmid; 0.45 μm filtered) [µg/mL]	Plasmid inclusion amount (plasmid; HEPES substitution) [µg/mL]	luminescent cells (reporter gene expressed) [1]
RQRQRYYRQRQRGGRRRRRR (Nucleic acid condensing peptide) [mHP-1]	excellent	excellent	37.30	42.12	luminescence was observed in most cells
RQRQRGGRRRRRR (Nucleic acid condensing peptide) [mHP-3]	excellent	excellent	84.14	96.94	luminescence was observed in more cells than those of the sample which used the protamine
